Measurements reported in patent publication US9452986B2, “6-heteroaryloxy- or 6-aryloxy-quinoline-2-carboxamides and method of use” (AbbVie Inc., priority 2014, dated 2016).
Where two headings read alike, the source gives them in different places.

Experiments:
recombinant human Nav1.7 = recombinant human Nav1.7 (Homo sapiens (Human), UniProt Q15858); experiment: FRET-based membrane potential assay, recombinant human sodium channel Nav1.7; assay type: cell-based; details: read-out: FRET-Membrane Potential Nav1.7 IC50
In short: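 Channel activation used veratridine at its EC80, set by a dilution curve each experiment, together with Leiurus scorpion venom, added 3 min after compound. Membrane-potential ratio signals from FLIPR Tetra in HEPES-buffered HBSS were fitted to a four-parameter Hill equation for percent inhibition and IC50.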

recombinant human Nav1.8 = recombinant human Nav1.8 (Homo sapiens (Human), UniProt Q9Y5Y9); experiment: FRET-based membrane potential assay, recombinant human sodium channel Nav1.8; assay type: cell-based
osteoarthritic rats = experiment: Osteoarthritic (OA) pain induced by sodium monoiodoacetate (MIA), hind limb grip force; assay type: in vivo, rat; details: Rattus norvegicus, 480 h, rat, 20 days following MIA injection, hind limb grip force, read-out: OA MPE; for inhibition in vivo at 30 mg/kg: OA dose 30 mg/kg; for inhibition in vivo at 10 mg/kg: OA dose 10 mg/kg
In short: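 Activity-induced pain was read as maximum compressive hind limb grip force, two sequential trials normalized to body weight, 20 days after intra-articular MIA (3 mg/rat) in male Sprague Dawley rats. Randomized, blinded dosing; effect expressed as return toward naïve-animal response relative to vehicle.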

[1] = test system: spinal nerve ligated rats; experiment: Rat spinal nerve ligation (SNL) model of neuropathic pain, paw withdrawal threshold; assay type: in vivo; details: SNL dose 100 mg/kg; rat, von Frey paw withdrawal threshold; read-out: SNL MPE
Text: Rat Spinal Nerve Ligation (SNL) Model of Neuropathic Pain.
The male Sprague Dawley rats (Charles River Laboratories, Wilmington, Mass.), weighing 150-175 g at the time of surgery, were placed under isoflurane anesthesia and a 1.5 cm incision was made dorsal to the lumbosacral plexus. The paraspinal muscles (left side) were separated from the spinous processes, the left L5 and L6 spinal nerves isolated, and tightly ligated with 5-0 silk suture distal to the dorsal root ganglion. Care was taken to avoid ligating the L4 spinal nerve. Following spinal nerve ligation, a minimum of 7 days of recovery and no more than 3 weeks was allowed prior to the behavioral testing (mechanical sensitivity). Only rats with threshold scores ≦4.5 g were considered allodynic and utilized in pharmacological experiments.
Mechanical sensitivity was measured using calibrated von Frey filaments (Stoelting, Wood Dale, Ill.). […] The von Frey filaments were presented perpendicularly to the plantar surface of the selected hind paw, and then held in this position for approximately 8 seconds with enough force to cause a slight bend in the filament. Positive responses included an abrupt withdrawal of the hind paw from the stimulus, or flinching behavior immediately following removal of the stimulus. […] A percent maximal possible effect (% MPE) of testing compound was calculated according to the formula: (Log [compound−treated threshold]−Log [vehicle−treated threshold])/(Log [maximum threshold]−Log [vehicle−treated threshold])×100%, where the maximum threshold was equal to 15 g.
The animals were housed in Association for Assessment and Accreditation of Laboratory Animal Care (AAALAC) approved facilities at AbbVie Inc. in a temperature-regulated environment under a controlled 12-hour light-dark cycle, with lights on at 6:00 a.m. Food and water were available ad libitum at all times except during testing. All testing was done following procedures outlined in protocols approved by AbbVie Inc.s' Institutional Animal Care and Use Committee.

[2] = HEK293 cells stably expressing recombinant human Nav1.7, veratridine + scorpion venom depolarization
[3] = HEK293 cells stably expressing recombinant human Nav1.8, veratridine + scorpion venom depolarization

Chain of recombinant human Nav1.7 (Q15858 whole entry): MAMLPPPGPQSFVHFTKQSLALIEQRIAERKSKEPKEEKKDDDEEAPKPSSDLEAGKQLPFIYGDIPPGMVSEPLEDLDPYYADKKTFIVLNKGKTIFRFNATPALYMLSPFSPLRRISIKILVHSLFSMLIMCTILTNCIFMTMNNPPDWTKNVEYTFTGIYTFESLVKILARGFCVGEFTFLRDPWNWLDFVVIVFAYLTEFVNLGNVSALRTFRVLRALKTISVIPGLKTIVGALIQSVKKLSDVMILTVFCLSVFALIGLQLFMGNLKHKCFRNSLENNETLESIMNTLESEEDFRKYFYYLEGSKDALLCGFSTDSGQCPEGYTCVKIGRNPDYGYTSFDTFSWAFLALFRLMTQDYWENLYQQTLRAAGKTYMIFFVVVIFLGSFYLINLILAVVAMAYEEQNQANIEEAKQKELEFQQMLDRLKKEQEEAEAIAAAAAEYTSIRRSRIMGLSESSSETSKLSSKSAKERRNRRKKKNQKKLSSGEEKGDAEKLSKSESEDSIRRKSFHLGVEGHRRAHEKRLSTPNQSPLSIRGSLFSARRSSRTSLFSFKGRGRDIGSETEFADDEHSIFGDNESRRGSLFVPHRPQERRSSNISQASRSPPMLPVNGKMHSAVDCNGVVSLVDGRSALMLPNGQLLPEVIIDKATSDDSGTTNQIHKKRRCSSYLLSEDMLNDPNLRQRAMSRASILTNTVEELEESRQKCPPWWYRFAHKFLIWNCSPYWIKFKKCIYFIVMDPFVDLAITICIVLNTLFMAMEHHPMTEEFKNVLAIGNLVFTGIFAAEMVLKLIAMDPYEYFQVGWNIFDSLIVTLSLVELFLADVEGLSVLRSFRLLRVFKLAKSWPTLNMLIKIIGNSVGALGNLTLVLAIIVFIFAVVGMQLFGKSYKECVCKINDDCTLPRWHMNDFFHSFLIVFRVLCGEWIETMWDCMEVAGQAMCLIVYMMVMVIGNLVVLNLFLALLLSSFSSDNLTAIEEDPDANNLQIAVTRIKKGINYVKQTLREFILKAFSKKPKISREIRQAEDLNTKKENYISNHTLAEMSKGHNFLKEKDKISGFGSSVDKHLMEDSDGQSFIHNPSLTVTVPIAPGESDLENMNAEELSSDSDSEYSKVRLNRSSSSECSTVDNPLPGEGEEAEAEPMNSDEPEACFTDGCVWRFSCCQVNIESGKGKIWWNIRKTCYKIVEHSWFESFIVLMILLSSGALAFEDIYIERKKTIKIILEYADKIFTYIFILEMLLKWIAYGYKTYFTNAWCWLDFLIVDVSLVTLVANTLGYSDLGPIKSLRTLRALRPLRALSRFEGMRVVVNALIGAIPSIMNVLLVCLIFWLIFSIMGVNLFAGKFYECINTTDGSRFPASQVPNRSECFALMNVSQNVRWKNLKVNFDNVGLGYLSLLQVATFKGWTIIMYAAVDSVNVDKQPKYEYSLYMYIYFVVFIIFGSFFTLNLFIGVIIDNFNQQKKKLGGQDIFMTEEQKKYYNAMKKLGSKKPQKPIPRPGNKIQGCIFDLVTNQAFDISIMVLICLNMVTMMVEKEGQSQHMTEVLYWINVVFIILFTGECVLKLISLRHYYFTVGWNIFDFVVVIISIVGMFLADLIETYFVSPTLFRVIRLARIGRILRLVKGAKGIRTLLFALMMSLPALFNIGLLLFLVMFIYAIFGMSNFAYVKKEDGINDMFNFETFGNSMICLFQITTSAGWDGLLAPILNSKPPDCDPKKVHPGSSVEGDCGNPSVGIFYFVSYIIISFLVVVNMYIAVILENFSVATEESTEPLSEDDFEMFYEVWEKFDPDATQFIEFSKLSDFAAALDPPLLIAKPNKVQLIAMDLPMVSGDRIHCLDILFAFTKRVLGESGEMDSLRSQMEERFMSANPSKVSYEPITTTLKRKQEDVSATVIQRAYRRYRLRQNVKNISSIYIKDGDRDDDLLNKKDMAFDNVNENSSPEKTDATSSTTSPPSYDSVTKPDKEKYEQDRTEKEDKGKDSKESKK
Chain of recombinant human Nav1.8 (Q9Y5Y9 whole entry): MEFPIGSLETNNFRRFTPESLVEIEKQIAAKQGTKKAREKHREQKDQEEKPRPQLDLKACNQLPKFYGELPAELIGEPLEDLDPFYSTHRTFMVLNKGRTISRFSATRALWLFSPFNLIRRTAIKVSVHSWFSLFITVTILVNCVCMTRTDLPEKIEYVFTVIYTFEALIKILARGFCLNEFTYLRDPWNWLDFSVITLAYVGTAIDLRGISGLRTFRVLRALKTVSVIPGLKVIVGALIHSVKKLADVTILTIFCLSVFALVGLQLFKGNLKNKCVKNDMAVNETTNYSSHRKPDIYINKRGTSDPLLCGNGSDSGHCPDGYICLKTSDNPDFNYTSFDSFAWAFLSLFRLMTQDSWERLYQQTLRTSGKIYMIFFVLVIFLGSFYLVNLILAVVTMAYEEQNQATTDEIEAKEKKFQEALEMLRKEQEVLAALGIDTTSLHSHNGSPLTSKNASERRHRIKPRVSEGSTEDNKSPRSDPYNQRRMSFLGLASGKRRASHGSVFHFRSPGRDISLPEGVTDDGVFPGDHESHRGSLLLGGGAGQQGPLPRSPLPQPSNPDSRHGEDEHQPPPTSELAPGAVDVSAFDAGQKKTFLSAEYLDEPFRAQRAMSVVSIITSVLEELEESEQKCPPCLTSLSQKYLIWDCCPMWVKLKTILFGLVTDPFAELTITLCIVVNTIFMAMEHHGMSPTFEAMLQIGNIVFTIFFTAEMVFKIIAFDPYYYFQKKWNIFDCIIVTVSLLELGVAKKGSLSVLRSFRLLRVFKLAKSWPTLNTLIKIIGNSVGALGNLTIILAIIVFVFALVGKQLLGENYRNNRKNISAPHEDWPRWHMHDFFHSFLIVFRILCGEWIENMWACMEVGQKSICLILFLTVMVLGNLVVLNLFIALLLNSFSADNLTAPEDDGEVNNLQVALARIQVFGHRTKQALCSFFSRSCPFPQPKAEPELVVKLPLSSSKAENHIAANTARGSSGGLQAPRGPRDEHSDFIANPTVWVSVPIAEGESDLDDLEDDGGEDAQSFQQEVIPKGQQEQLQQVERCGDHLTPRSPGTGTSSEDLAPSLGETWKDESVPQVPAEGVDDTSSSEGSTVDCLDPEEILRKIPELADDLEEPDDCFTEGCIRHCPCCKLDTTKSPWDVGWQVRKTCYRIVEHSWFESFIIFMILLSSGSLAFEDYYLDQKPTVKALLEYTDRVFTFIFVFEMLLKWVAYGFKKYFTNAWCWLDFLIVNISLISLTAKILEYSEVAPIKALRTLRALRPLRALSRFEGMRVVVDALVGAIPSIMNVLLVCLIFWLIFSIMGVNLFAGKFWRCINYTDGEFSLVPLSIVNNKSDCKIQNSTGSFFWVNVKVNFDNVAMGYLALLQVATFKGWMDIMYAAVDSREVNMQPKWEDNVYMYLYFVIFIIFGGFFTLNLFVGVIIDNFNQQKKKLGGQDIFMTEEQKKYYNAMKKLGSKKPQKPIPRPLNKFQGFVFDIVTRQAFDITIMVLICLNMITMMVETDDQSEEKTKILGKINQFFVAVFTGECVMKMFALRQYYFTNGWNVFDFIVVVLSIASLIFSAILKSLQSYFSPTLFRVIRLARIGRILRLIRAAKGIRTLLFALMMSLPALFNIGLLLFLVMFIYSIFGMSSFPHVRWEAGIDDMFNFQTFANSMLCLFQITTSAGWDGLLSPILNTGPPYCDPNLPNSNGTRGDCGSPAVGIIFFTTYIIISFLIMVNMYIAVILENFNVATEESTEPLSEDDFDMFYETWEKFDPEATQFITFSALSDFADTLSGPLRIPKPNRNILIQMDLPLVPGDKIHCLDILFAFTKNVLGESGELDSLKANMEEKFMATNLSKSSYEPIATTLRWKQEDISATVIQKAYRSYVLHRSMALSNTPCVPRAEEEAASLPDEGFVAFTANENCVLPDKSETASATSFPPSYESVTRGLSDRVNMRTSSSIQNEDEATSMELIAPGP

O=C(NC1CCS(=O)(=O)C1)c1ccc2cc(Oc3ccc(C(F)(F)F)cn3)ccc2n1 (stereo not drawn) [Example 2, N-(1,1-dioxidotetrahydrothiophen-3-yl)-6-{[5-(trifluoromethyl)pyridin-2-yl]oxy}quinoline-2-carboxamide]
IC50 (recombinant human Nav1.7; [2]): 504 nM
IC50 (recombinant human Nav1.8; [3]): 648 nM
inhibition in vivo at 30 mg/kg (osteoarthritic rats): 85%
inhibition in vivo at 100 mg/kg [1]: 54%

O=C(N[C@H]1CCS(=O)(=O)C1)c1ccc2cc(Oc3ccc(C(F)(F)F)cn3)ccc2n1 [Example 4, N-[(3S)-1,1-dioxidotetrahydrothiophen-3-yl]-6-{[5-(trifluoromethyl)pyridin-2-yl]oxy}quinoline-2-carboxamide]
IC50 (recombinant human Nav1.7; [2]): 856 nM
inhibition in vivo at 30 mg/kg (osteoarthritic rats): 60%
inhibition in vivo at 100 mg/kg [1]: 56%

O=C(c1ccc2cc(Oc3ccc(C(F)(F)F)cn3)ccc2n1)N1CC(N2CCOCC2)C1 [Example 6, [3-(morpholin-4-yl)azetidin-1-yl](6-{[5-(trifluoromethyl)pyridin-2-yl]oxy}quinolin-2-yl)methanone]
IC50 (recombinant human Nav1.7; [2]): 2930 nM
IC50 (recombinant human Nav1.8): 4610 nM
inhibition in vivo at 10 mg/kg (osteoarthritic rats): 72%
inhibition in vivo at 100 mg/kg [1]: 27%

O=C(c1ccc2cc(Oc3ccc(C(F)(F)F)cn3)ccc2n1)N1CCC(N2CCOCC2)CC1 [Example 11, [4-(morpholin-4-yl)piperidin-1-yl](6-{[5-(trifluoromethyl)pyridin-2-yl]oxy}quinolin-2-yl)methanone]
IC50 (recombinant human Nav1.7; [2]): 1610 nM
IC50 (recombinant human Nav1.8; [3]): 1690 nM
inhibition in vivo at 10 mg/kg (osteoarthritic rats): 72%
inhibition in vivo at 100 mg/kg [1]: 34%

O=C(c1ccc2cc(Oc3ccc(C(F)F)cn3)ccc2n1)N1CCNCC1 [Example 14, (6-{[5-(difluoromethyl)pyridin-2-yl]oxy}quinolin-2-yl)(piperazin-1-yl)methanone]
inhibition in vivo at 30 mg/kg (osteoarthritic rats): 81%
inhibition in vivo at 100 mg/kg [1]: 44%

COCCNC(=O)c1ccc2cc(Oc3ccc(C(F)(F)F)cn3)ccc2n1 [Example 22, N-(2-methoxyethyl)-6-{[5-(trifluoromethyl)pyridin-2-yl]oxy}quinoline-2-carboxamide]
IC50 (recombinant human Nav1.7; [2]): 1980 nM
IC50 (recombinant human Nav1.8; [3]): 3540 nM
inhibition in vivo at 30 mg/kg (osteoarthritic rats): 73%
inhibition in vivo at 100 mg/kg [1]: 72%

COC[C@H]1CN(C(=O)c2ccc3cc(Oc4ccc(C(F)(F)F)cn4)ccc3n2)CCN1 [Example 31, [(3R)-3-(methoxymethyl)piperazin-1-yl](6-{[5-(trifluoromethyl)pyridin-2-yl]oxy}quinolin-2-yl)methanone]
IC50 (recombinant human Nav1.7): 619 nM
IC50 (recombinant human Nav1.8; [3]): 1860 nM
inhibition in vivo at 30 mg/kg (osteoarthritic rats): 94%
inhibition in vivo at 100 mg/kg [1]: 64%

CN(C)C(=O)CNC(=O)c1ccc2cc(Oc3ccc(C(F)(F)F)cn3)ccc2n1 [Example 33, N-[2-(dimethylamino)-2-oxoethyl]-6-{[5-(trifluoromethyl)pyridin-2-yl]oxy}quinoline-2-carboxamide]
IC50 (recombinant human Nav1.7): 471 nM
IC50 (recombinant human Nav1.8): 740 nM
inhibition in vivo at 30 mg/kg (osteoarthritic rats): 61%
inhibition in vivo at 100 mg/kg [1]: 50%

O=C(c1ccc2cc(Oc3ccc(C(F)(F)F)cn3)ccc2n1)N1CCC(F)C1 (stereo not drawn) [Example 35, (3-fluoropyrrolidin-1-yl)(6-{[5-(trifluoromethyl)pyridin-2-yl]oxy}quinolin-2-yl)methanone]
IC50 (recombinant human Nav1.7; [2]): 1270 nM
inhibition in vivo at 10 mg/kg (osteoarthritic rats): 79%
inhibition in vivo at 100 mg/kg [1]: 74%

O=C(c1ccc2cc(Oc3ccc(C(F)(F)F)cn3)ccc2n1)N1C[C@@H](F)C[C@H]1CO [Example 50, [(2S,4S)-4-fluoro-2-(hydroxymethyl)pyrrolidin-1-yl](6-{[5-(trifluoromethyl)pyridin-2-yl]oxy}quinolin-2-yl)methanone]
IC50 (recombinant human Nav1.7; [2]): 12200 nM
inhibition in vivo at 30 mg/kg (osteoarthritic rats): 81%
inhibition in vivo at 100 mg/kg [1]: 94%

O=C(c1ccc2cc(Oc3ccc(C(F)(F)F)cn3)ccc2n1)N1CC[C@H](F)C1 [Example 51, [(3S)-3-fluoropyrrolidin-1-yl](6-{[5-(trifluoromethyl)pyridin-2-yl]oxy}quinolin-2-yl)methanone]
IC50 (recombinant human Nav1.7; [2]): 2250 nM
inhibition in vivo at 30 mg/kg (osteoarthritic rats): 52%
inhibition in vivo at 100 mg/kg [1]: 90%

O=C(c1ccc2cc(Oc3ccc(C(F)(F)F)cn3)ccc2n1)N1CC[C@@H](F)C1 [Example 52, [(3R)-3-fluoropyrrolidin-1-yl](6-{[5-(trifluoromethyl)pyridin-2-yl]oxy}quinolin-2-yl)methanone]
IC50 (recombinant human Nav1.7; [2]): 2980 nM
inhibition in vivo at 30 mg/kg (osteoarthritic rats): 86%
inhibition in vivo at 100 mg/kg [1]: 81%

O=C(NC1CC(F)(F)C1)c1ccc2cc(Oc3ccc(C(F)(F)F)cn3)ccc2n1 [Example 59, N-(3,3-difluorocyclobutyl)-6-{[5-(trifluoromethyl)pyridin-2-yl]oxy}quinoline-2-carboxamide]
IC50 (recombinant human Nav1.7): 1700 nM
inhibition in vivo at 30 mg/kg (osteoarthritic rats): 83%
inhibition in vivo at 100 mg/kg [1]: 84%

O=C(NCC(F)(F)F)c1ccc2cc(Oc3ccc(C(F)(F)F)cn3)ccc2n1 [Example 344, N-(2,2,2-trifluoroethyl)-6-{[5-(trifluoromethyl)pyridin-2-yl]oxy}quinoline-2-carboxamide]
IC50 (recombinant human Nav1.7; [2]): 2100 nM
IC50 (recombinant human Nav1.8; [3]): 670 nM
inhibition in vivo at 30 mg/kg (osteoarthritic rats): 59%
inhibition in vivo at 100 mg/kg [1]: 76%
